Columns and labels:
[1] = system: mutant KRAS in cell free DNA in plasma; assay: Phase 1b/2 mCRC study, plasma KRAS mutant by ddPCR; format: in vivo, human; settings: with FOLFIRI and bevacizumab
Procedure: Participants must have histologically confirmed metastatic and unresectable disease, and previously failed treatment or be intolerant to fluoropyrimidine and oxaliplatin with or without bevacizumab.
KRAS in cell free DNA in plasma from patients was periodically quantified using droplet digital PCR (BioRad), where percentage of KRAS that is mutant KRAS was determined. The lower limit of sensitivity of this assay was 0.001% mutant KRAS.
KRAS MAF was measured by digital droplet PCR (ddPCR) at baseline (Cycle 1 Day 1, pre-dose) and on-treatment (Day 1 of Cycles 2 to 9). […] Clinical responses were observed across different KRAS variants, including the 3 most common in CRC. […] In addition, patients with PR and SD tended to have lower on-treatment KRAS MAF than patients with early PD.

DLD-1 cells = assay: Cell viability (CellTiterGlo) in KRAS mutant and WT isogenic CRC cells; format: cell-based; settings: 72h treatment
Text: FIG. 5 is a graph showing cell viability in onvansertib-treated KRAS mutant and WT isogenic CRC cells.
(§1) Onvansertib, an oral and highly-selective PLK1 inhibitor, is a promising therapeutic option for KRAS-mutated CRC. PLK1, a key regulator of mitosis, is overexpressed in CRC and associated with poor clinical parameters.

[2] = system: HCT-116 KRAS mutant xenograft; assay: HCT-116 KRAS-mutant CRC xenograft model; format: in vivo
Text: FIG. 6A and FIG. 6B are graphs showing anti-tumor activity of onvansertib in combination with irinotecan and 5-FU in the HCT-116 KRAS-mutant CRC xenograft model.
as §1

PLK1 = PLK1 (Homo sapiens, UniProt P53350); settings: including other PLK members; cited from earlier work
PLK1, sequence (P53350 whole entry): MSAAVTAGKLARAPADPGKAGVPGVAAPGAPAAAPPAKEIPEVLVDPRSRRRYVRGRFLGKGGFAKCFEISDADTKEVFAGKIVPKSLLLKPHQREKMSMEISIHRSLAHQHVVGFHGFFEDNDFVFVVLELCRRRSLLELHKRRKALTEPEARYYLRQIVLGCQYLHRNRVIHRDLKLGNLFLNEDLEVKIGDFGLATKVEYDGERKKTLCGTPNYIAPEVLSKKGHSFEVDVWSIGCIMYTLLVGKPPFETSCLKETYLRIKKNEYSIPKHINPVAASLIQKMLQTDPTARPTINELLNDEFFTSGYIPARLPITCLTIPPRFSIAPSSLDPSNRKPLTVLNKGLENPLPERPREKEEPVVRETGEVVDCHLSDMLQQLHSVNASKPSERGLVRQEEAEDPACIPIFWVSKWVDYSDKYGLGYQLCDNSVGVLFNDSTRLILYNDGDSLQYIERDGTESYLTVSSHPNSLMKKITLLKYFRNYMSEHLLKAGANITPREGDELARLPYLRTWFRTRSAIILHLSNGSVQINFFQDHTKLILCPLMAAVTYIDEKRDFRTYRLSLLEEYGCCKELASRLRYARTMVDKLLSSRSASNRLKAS

[3] = system: cell lines, both from solid as well as hematologic tumors; settings: large number of cell lines; cited from earlier work
cancer cell lines = settings: cited from earlier work
xenograft tumor = settings: well tolerated doses, oral administration; cited from earlier work
[4] = system: HT29 human colon adenocarcinoma xenografts; settings: in combination with irinotecan; cited from earlier work
[5] = system: disseminated model of AML; settings: in combination with cytarabine; cited from earlier work
[6] = cited from earlier work
[7] = cited from earlier work; remark: listed apart in the source
[8] = system: advanced/metastatic solid tumors; settings: evaluable patients; cited from earlier work

In the case of `CN1CCN(c2ccc(OC(F)(F)F)c(Nc3ncc4c(n3)-c3c(c(C(N)=O)nn3CCO)CC4)c2)CC1` [onvansertib, 1-(2-hydroxyethyl)-8-{[5-(4-methylpiperazin-1-yl)-2-(trifluoromethoxy)phenyl]amino}-4,5-dihydro-1H-pyrazolo[4,3-h] quinazoline-3-carboxamide], the “patients with KRAS undetectable within the 1st cycle” value ([1]; 12 mg/m^2, 4 patients detectable at baseline) is reported as 4 patients, the “patients with KRAS undetectable within the 1st cycle” value ([1]; 15 mg/m^2, 2 patients detectable at baseline) is reported as 1 patients and the “change of KRAS mutant variants within the first cycle” value ([1]; five variants in 6 patients, 12 and 15 mg/m^2) is reported as “decreased”. For the same compound, the “mitotic arrest and cell death, mutant KRAS vs wild-type cells” value (DLD-1 cells) was “more profound mitotic arrest and cell death in mutant KRAS cells”, the combination effect ([2]; in combination with irinotecan and 5-FU) was “synergy” and the anti-tumor activity ([2]; single agent) was “potent anti-tumor activity”. The “specificity for PLK1 among a panel of 296 kinases” value (PLK1) was “high specificity”, the “potency in proliferation assays” value [3] was “low nanomolar activity” and the “effect on cell cycle” value (cancer cell lines) was “mitotic cell-cycle arrest followed by apoptosis”. The xenograft tumor growth (xenograft tumor) was “inhibits xenograft tumor growth”, the “tumor regression compared to each agent alone” value [4] was “enhanced tumor regression” and the survival of animals [5] was “prolonged survival”. The half-life ([6]; in vivo) was “about 24 hours”, the oral bioavailability ([6]; rodent and nonrodent species) was “good oral bioavailability” and the primary dose-limiting toxicities ([7]; in vivo) was “neutropenia and thrombocytopenia”. For the same compound, the “recovery of hematologic toxicities” value ([7]; reversible) was ≤ 3 weeks, the “recommended phase 2 dose” value ([7]; single agent) was 24 mg/m^2 and the “patients with stable disease” value [8] was 5 of 16.

From patent US20230172935A1, “METHODS OF MONITORING KRAS MUTATIONS” (Cardiff Oncology, Inc., priority 2020, published 2023)
